In US20080076137A1, “Bioanalytic Systems and Methods” (priority 2006, published 2008):

Tested on: mouse monoclonal antibodies (mAb) B8 against Btri
Assay: ELISA: binding of anti-Btri mAb to Streptavidin-coated plates modified with biotinylated Btri glycoconjugates
Settings: for fluorescence intensity I (binding capacity / maximal activity): corrected fluorescence 355nm/460nm, at loading of maximal binding
Protocol: Biot1-PNPA was used to prepare a polyacrylamide conjugate with blood group trisaccharide B (Btri), Galα1-3(Fucα1-2)Gal-(FIG. 1b, Glyc=Btri). The obtained end-labeled glycopolymer; biott-PHEAA-(Btri)x (molar fraction of Btri is 20%), was tested on ability to bind monoclonal antibodies (mAbs) against Btri in ELISA. Its antibody binding activity was compared to that of other biotinylated derivatives of Btri, two monomeric glycosides with Btri-biot linkers of different length and a glycopolymer, PHEAA-(Btri)x-bioty. The latter was synthesized by the routine approach (see FIG. 1a) and contained biotin residues randomly pendant to the polymer backbone as side groups.
Dependence of signal in ELISA from loading of Streptaviditn-coated plates with biotynylated glycoconjugates is shown in FIG. 8. As shown, binding of antibodies with Streptavidin-coated plates modified with biotinilated glycoconjugates. The Streptavidin-coated plates were consequentially incubated with the glycoconjugates and mouse mAb; for development of the bound mAbs an anti-mouse alkaline phosphatase conjugate in combination with a fluorescent substrate were used. The detected fluorescence intensity is plotted against added per well amounts of a) Btri and b) biotin related to the quantity of Streptavidin in well. According the manufacturer 125 pmole Streptavidin is contained per well, the working well surface was calculated to be 9·10^15 Å^2. […] The antibody binding to surface modified with the biotinylated monovalent Btri-glycosides was noticeably lower then in the cases with the multivalent ligands. For the glycoside with a long linker, Btri-O(CH2)3NHCO(CH2)5NH-biot, assay signal was detected only when coating concentration of the glycoside exceeded 20 ng/well (0.18 mole biotin/mole Streptavidin, and 22 pmole of Btri/well).
All chemicals and solvents apart from those mentioned below were purchased from Merck (Germany) and Fluka (Switzerland). The solvents were dried and purified by conventional procedures. Galα1-3(Fucα1-2)Galβ-O(CH2)3NH2, 4-Nitrophenylacrylate, PNPA and PHEAA-(Btri)x-biotiny were synthesized as described elsewhere. Mouse monoclonal antibodies (mAb) B8 against Btri were obtained from All-Russian Hematology Research Center, Moscow. Anti-mouse IgG+IgM (H+L)-alkaline phosphatase conjugate (Ig-AP) was the product of AP Biotech (UK). The organocobalt complexes used in this work were protected from light; their solutions were concentrated under vacuum with bath temperature kept below 35° C.
Enzyme-Linked Immunosorbent Assay.
Before test plates “Reacti-Bind Streptavidin Coated High Binding Capacity Black 96-Well Plate” (Pierce) were rinsed twice with PBS. Then serial tenfold dilutions of the biotinylated glycoconjugates contained Btri in PBS (0.02-200 μg ml^−1, […] per well) were added onto the plates for 1 h at 37° C. Plates were washed with PBS containing 0.1% Tween-20 (washing buffer). The same way plates were washed between all the next steps. After washing the plates were blocked with 3-% BSA in PBS. B8 mAbs (1:100 in PBS containing 0.3% BSA) were added and plates were incubated for 1 h at 37° C. After that plates were washed and incubated with Ig-AP (1:5000 in PBS containing 0.3% BSA) for 1 h at 37° C. […] After 30-min incubation at room temperature fluorescence intensity (355nm/460nm) was measured by “Victor^2” multilabel counter (PerkinElmer). The collected data were expressed in fluorescence units. Each assay was done in duplicate, blank reaction was performed by omitting mAb. The blank reading was subtracted from the final fluorescence to provide the corrected fluorescence intensity values.

| Substance | interaction with mAb (in words) (ELISA on Streptavidin-coated plates) | fluorescence intensity I (binding capacity / maximal activity) | coating concentration above which assay signal was detected (0.18 mole biotin/mole Streptavidin, 22 pmole of Btri/well) | loading at which maximal binding of mAb / maximal activity was achieved (Streptavidin-coated plate, 125 pmole Streptavidin per well, 200 ng/well = 186 pmol of Btri, 220 ng/well = 220 pmole of Btri/well) [ng/well] | surface density of Btri at which binding with mAb reached maximal level (working well surface calculated to be 9·10^15 Å^2) |
| --- | --- | --- | --- | --- | --- |
| Btri-O(CH2)3NH-biot | exceptionally weak | ~5×10^4 f.u. |  |  |  |
| Btri-O(CH2)3NHCO(CH2)5NH-biot |  | ~70×10^4 f.u. | exceeded 20 ng/well | 220 | about 15 residues/1000 Å^2 |
